We go through 99 compounds from PubChem BioAssay AID2252 (Southern Research Specialized Biocontainment Screening …, 2010).

The subject of this experiment is THP-1 viability, CellTiter-Glo luminescence, 72 h. The experiment in a line: PubChem AID 2252.

Bounds are passed on as bounds.

As a reminder, the EC50 is the concentration at which the effect is half-maximal.

With `Cc1ccc(OCC(=O)N/N=C\c2c(C)[nH]n(-c3ccccc3)c2=O)c([N+](=O)[O-])c1`, the EC50 was 6.86 µM.
Take `Nc1nonc1-n1nnc(C(=O)N/N=C/c2ccccc2O)c1CN1CCCC1`: the concentration giving a half-maximal response (EC50) is 8.87 µM.
On to `COc1ccc(C(C(=O)Nc2ccc(C(C)C)cc2)N(Cc2ccco2)C(=O)CC2NC(=O)NC2=O)cc1` (centres undefined), for which the concentration giving a half-maximal response (EC50) was 31.9 µM.
Turning to `COc1ccc(CNCC(O)COc2ccc(C(C)(C)c3ccccc3)cc2)cc1` (centres undefined), the EC50 was 14.7 µM.
In the case of `CN(C)c1ccc(O)c2c1CC1CC3[C@@H](N(C)C)C(=O)C(C(N)=O)=C(O)[C@]3(O)C(=O)C1=C2O` (some centres undefined), the EC50 is 30.3 µM.
In the case of `O=C(CN1CC[n+]2c(-c3cccs3)csc21)c1ccc(-c2ccccc2)cc1`, the EC50 is 13 µM.
Regarding `CCC(O)(CC)C(=O)N/N=C/c1cc(Br)cc(Br)c1O`, the EC50 was 15.4 µM.
For `O=C(N/N=C/c1cc(Cl)ccc1O)c1cccnc1` the value was 2.87 µM; for `C[C@H]1O[C@@H](n2cc(F)c(=O)[nH]c2=O)[C@H](O)[C@@H]1O`, 26.7 µM; for `CCCCn1c(NCc2ccccc2NS(=O)(=O)c2ccc(C)cc2)nc2ccccc21`, 24.3 µM.
On to `CN1CCN(C2=Cc3ccccc3Sc3cc(F)c(F)cc32)CC1`, for which the EC50 is 14.8 µM.
Take `Cc1ccc(C)c(N/C(N)=N/c2nc(C)cc(C)n2)c1`: the EC50 was 27 µM.
Consider `Cc1ccc(C[n+]2c(-c3ccc(C)cc3)cc(-c3ccc(C)cc3)cc2-c2ccc(C)cc2)cc1`, for which the EC50 was 0.22 µM.
On to `Fc1cccc(Nc2c3c(nc4ccccc24)CCC3)c1`, for which the 50% effective concentration (EC50) was 26.3 µM.
On to `CNC(CC(=O)c1ccc([N+](=O)[O-])cc1)C(Cl)(Cl)Cl` (centres undefined), for which the EC50 was 9.95 µM.
For `Oc1cccc2ccc(Nc3ccccn3)nc12` the value was 1.75 µM.
In the case of `CN1CCN(C(c2ccc(Br)cc2)c2cc(Cl)c3cccnc3c2O)CC1` (centres undefined), the EC50 was 2 µM.
Take `COc1ccc2nc(C)cc(Nc3ccc(N4CCOCC4)cc3)c2c1`: the EC50 is 45.9 µM.
As for `COc1ccc(C(=O)CSc2nnc(-c3cnccn3)n2Cc2ccco2)cc1`, the EC50 is under 0.1 µM.
The result for `CCCCCCCCCCCCCCCC[N+](C)(C)CCN(Cc1ccc(OC)cc1)c1ncccn1` reads 0.36 µM; that for `COc1ccc(Cc2nnc(N/N=C/c3ccc(O)cc3)[nH]c2=O)cc1OC`, 0.57 µM; that for `c1cncc(CSc2ccc(-c3cccs3)nn2)c1`, 35.2 µM.
Turning to `O=C(CCN1CCN(c2ccccc2)CC1)N/N=C/c1ccc([N+](=O)[O-])o1`, the EC50 was 43.9 µM.
For the compound `CCCCCCCSc1cc(OC)c(CCNC)cc1OC`, the EC50 was 10.2 µM.
For `O=C(N/N=C/c1cc(O)ccc1Br)c1cccnc1` the value was 2.86 µM; for `CCn1ncc(/C=N\NC(=O)c2csc3ccccc23)c1C`, 19.1 µM.
As to `N=c1n(CCN2CCCCC2)c2ccccc2n1CC(=O)c1ccc(Cl)c(Cl)c1`, the half-maximal effective concentration (EC50) is 20.4 µM.
`CCCCCCCCCCOC(=O)Cn1c(COc2cccc(OC)c2)[n+](C)c2ccccc21`: the EC50 is 2.38 µM.
As for `CCCCCOc1ccc(C)cc1CN(CCCl)CCCl`, the 50% effective concentration (EC50) was 28.9 µM.
Take `O=C(/C=C/c1ccccc1)c1cc(Br)ccc(=O)c1O`: the EC50 is 10.5 µM.
As to `O=C(NCCCN1CCOCC1)c1sc2cc(Cl)ccc2c1Cl`, the EC50 was 35.8 µM.
The result for `O=C(CNC(=O)c1ccccc1)N/N=C/c1ccc([N+](=O)[O-])s1` reads 16.9 µM.
For `c1ccc(CN2CCC(Nc3nc(-c4cccs4)nc4ccccc34)CC2)cc1` the value was 8.03 µM; for `O=c1c2ccccc2nc(-c2cccc(Cl)c2)n1O`, 18.2 µM.
For the compound `CCCCCCCCCCOC(=O)Cn1c(COc2ccccc2C)[n+](C)c2ccccc21`, the EC50 was 1.29 µM.
For the compound `CCN(CCC(=O)Nc1ccc(Br)c(C)c1)Cc1ccccc1`, the EC50 is 13.8 µM.
As for `C#CCOCCOCCOCCNc1nc(N2CCN(C(=O)CCCCCCCCCCNC(=O)Cn3cc(C[C@@H](C)O)nn3)CC2)nc(N2CCN(C(=O)CCCCCCCCCCNC(=O)[C@@H]([C@H](C)CC)n3cc(CCCCCN)nn3)CC2)n1`, the EC50 was 9.97 µM.
Regarding `Cc1ccccc1C(=O)Nc1cccc(C(=O)N/N=C/c2cc(Cl)cc([N+](=O)[O-])c2O)c1`, the EC50 is 12.4 µM.
As for `COc1cccc(Nc2nc(NCC3CCCO3)c3ccccc3n2)c1` (centres undefined), the EC50 is 2.27 µM.
As for `CCOC(=O)c1c(-c2ccccc2)oc2ccc(OCC(O)CNCCN(C)C)cc12` (centres undefined), the EC50 was 5.89 µM.
Regarding `COc1cccc(F)c1C(C[N+](=O)[O-])c1c(N)n(C)c(=O)n(C)c1=O` (centres undefined), the EC50 was 6.05 µM.
As for `O=C(N/N=C/c1cc(Br)ccc1O)c1ccccc1Cl`, the EC50 is 1.49 µM.
Turning to `Clc1cc(Br)ccc1OCCCNCc1ccccc1`, the EC50 was 14.7 µM.
For `NCCCC[C@H]1CN=C(N)N1CCC12CC3CC(CC(C3)C1)C2` the value was 49.4 µM; for `Cc1cc([N+](=O)[O-])cc(/C=N/n2c(C)nc3ccccc3c2=O)c1O`, 28.2 µM.
In the case of `Cc1cc(NC(=O)/C=C/C(=O)N(c2ccccc2C)C(C(=O)NC2CCCC2)c2ccc(F)cc2)no1` (centres undefined), the EC50 was 37.5 µM.
In the case of `COC(=O)C1C(O)C(C)C(O)C(C)/C=C\C=C(/C)C(=O)Nc2c(C)c(OC(C)=O)c3c(c2O)C(=O)C(C)=C2OCOC(=C23)/C(C)=C/C(C)(O)C(O)C(C)C1O` (centres undefined), the EC50 is under 0.1 µM.
As for `CCCCCCCCCCCCCCCC[n+]1ccc(/C=N/O)cc1`, the EC50 is 0.3 µM.
In the case of `Cc1ccc2nsnc2c1S(=O)(=O)NCc1ccc2c(c1)OCO2`, the EC50 is under 0.1 µM.
For `O=C(CSc1ccc(Cl)cc1)c1ccco1` the value was under 0.1 µM; for `C[C@@H](NC(=O)/C(C#N)=C/c1ccc(O)c(O)c1)c1ccccc1`, 15.2 µM; for `Cc1cc(C)c(NC(=O)C[N+](C)(C)CC(O)COc2cccc3ccccc23)c(C)c1` (centres undefined), 12.8 µM.
As to `O=C(N/N=C/c1ccc([N+](=O)[O-])s1)c1cccnc1`, the 50% effective concentration (EC50) was 14.9 µM.
On to `Cc1cc(/C=C\c2ccc3cc(N(C)C)ccc3[n+]2C)c(C)n1-c1ccccc1`, for which the EC50 is 4.95 µM.
For the compound `CNC[C@H](CC1CCCCC1)NC[C@H](Cc1ccccc1)NCCC12CC3CC(CC(C3)C1)C2`, the EC50 was 3.49 µM.
In the case of `O=C1CN(/N=C/c2ccc([N+](=O)[O-])o2)C(=O)N1`, the EC50 is 47.3 µM.
Take `CCCCOc1ccc(NC2=NC3(CCCC3)N=C(N)N2)cc1`: the EC50 is 17.4 µM.
With `CN(C)CC/C=C1/c2ccccc2Sc2ccc(Cl)cc21`, the EC50 was 10.1 µM.
For `O=C(Cc1ccccc1)NNC(=S)NC(=O)c1cccs1` the value was 17.5 µM; for `CN1CCN(CCCN2c3ccccc3Sc3ccc(C(F)(F)F)cc32)CC1`, 10.3 µM.
In the case of `COc1cccc(/C=N/NC(=O)c2ccoc2C)c1O`, the EC50 was 4.3 µM.
For `CCOc1cc(CNCCCN2CCOCC2)cc(Br)c1OCC(=O)Nc1cccc(C(F)(F)F)c1`, the EC50 was 8.24 µM.
As for `CCC(C)(C)c1ccc(OCCCC[n+]2ccccc2)c(C(C)(C)CC)c1`, the EC50 was 0.97 µM.
In the case of `CNC[C@@H](Cc1ccccc1)NC[C@@H](CC1CCCCC1)NCCCc1ccccc1`, the concentration for a half-maximal effect (EC50) was 3.56 µM.
With `CN(Cc1ccccc1)CC(O)COc1ccc(CNCc2ccc(Cl)s2)cc1` (centres undefined), the EC50 is 22.2 µM.
For `O=C(CCl)NC1CCCc2ccccc21` (centres undefined) the value was 25.7 µM; for `CC(C)(c1ccccc1)c1ccc(OCCCN2CCNCC2)cc1`, 15.3 µM; for `CCOC(=O)c1c(-c2ccc(-c3ccccc3)cc2)csc1NC(=O)CNCCN(C)C`, 7.38 µM.
`Cn1cc(C(=O)N/N=C/C(Br)=C/c2ccccc2)ccc1=O`: the EC50 is 14.5 µM.
The result for `OC1CCCN(Cc2ccc3ccc4cccc5ccc2c3c45)C1` (centres undefined) reads 15.2 µM; that for `CCN(CC)c1ccc(/C=N/NC(=O)c2ccc3nc[nH]c3c2)c(O)c1`, 0.9 µM; that for `c1cc2c(cc1C1CCCCC1)c1c3n2CCCNC3CCC1` (centres undefined), 5.18 µM.
For `CCCCc1ccc(N/C(N)=N/c2nc(C)cc(C)n2)cc1`, the EC50 is 6.47 µM.
Regarding `Oc1c(Br)cc(Br)cc1Oc1ccc(Br)cc1Br`, the concentration for a half-maximal effect (EC50) is 26.9 µM.
As for `COc1ccc(C(=O)NC(=S)NNC(=O)c2cccc(C)c2)cc1`, the EC50 is 18.2 µM.
The result for `CN1CCC(=C2c3ccccc3C=Cc3ccccc32)CC1` reads 41.3 µM; that for `CCc1nc(SCC(=O)Nc2ccc(N(C)C)cc2)c2ccccc2n1`, 35.3 µM.
For `CC12CN3CC(C)(CN(C1)C3c1ccc(Br)cc1O)C2` (centres undefined), the EC50 is under 0.1 µM.
Take `CC(NCc1ccccc1O)C12CC3CC(CC(C3)C1)C2` (centres undefined): the EC50 is 41.6 µM.
For the compound `Oc1ccc(C[C@H]2CNCCN2CCCCC2CCCCC2)cc1`, the EC50 is 8.99 µM.
Regarding `c1ccc(CN2CCC(Nc3nc(-c4ccccc4)nc4ccccc34)CC2)cc1`, the EC50 is 17.6 µM.
On to `C[C@H]1c2cccc(O)c2C(O)=C2C(=O)[C@]3(O)C(O)=C(C(N)=O)C(=O)[C@@H](N(C)C)C3[C@@H](O)C21` (some centres undefined), for which the concentration for a half-maximal effect (EC50) is 27.5 µM.
The result for `O=C(/C=C/c1ccc(Cl)cc1)NCCCn1ccnc1` reads under 0.1 µM; that for `N#C/C(=N\Nc1ccc([N+](=O)[O-])cc1)C(N)=S`, 29 µM.
The result for `CCCCCCCCCCCCCCCCn1cc[n+](C)c1` reads 0.74 µM; that for `O=[N+]([O-])/C=C/c1cc2ccccc2[nH]1`, 44.9 µM.
As for `OCCN1CCN(CCCN2c3ccccc3Sc3ccc(C(F)(F)F)cc32)CC1`, the EC50 is 12.7 µM.
The result for `O=[N+]([O-])c1cc(CN2CCN(c3cccc(C(F)(F)F)c3)CC2)c2cccnc2c1O` reads 1.74 µM.
Turning to `CCCCCCCCCCCCCCCC[N+](C)(C)CC`, the EC50 was 0.48 µM.
With `O=C(/C=C/c1ccccc1)c1ccc(NC2=NCCCS2)cc1`, the 50% effective concentration (EC50) was 27.4 µM.
Regarding `CSc1nnc(-c2cccc(NC(=S)NN)c2)o1`, the EC50 is under 0.1 µM.
For the compound `NC[C@@H]1O[C@H](C23CC4CC(CC(C4)C2)C3)Cc2c1ccc(O)c2O`, the EC50 was 3.6 µM.
On to `CCCC(=O)c1c(NC)cc(C)oc1=O`, for which the EC50 was 15.9 µM.
For `OC(c1cc(C(F)(F)F)nc2c(C(F)(F)F)cccc12)C1CCCCN1` (centres undefined) the value was 7.61 µM; for `NC1=NC2=C(CCCC2)C2(CCCCC2)S1`, 37.4 µM; for `Cc1ccc2nc(N(CCCN(C)C)C(=O)c3ccc4c(c3)CCCC4)sc2c1`, 9.42 µM.
In the case of `O=C(N/N=C\c1c[nH]c2ccccc12)c1ccc(O)cc1`, the EC50 was under 0.1 µM.
As for `CCCOc1ccc(C(=O)NNC(=S)NC(=O)CC)cc1`, the EC50 was 2.81 µM.
The result for `O=C(/C=C/c1ccco1)NC(=S)Nc1cccc(-c2nc3ccccc3o2)c1` reads under 0.1 µM.
